Our source for the AC1.4 values is patent US11780826B2 (Amgen Inc., priority 2017, dated 2023).

The assay concerns Bovine cardiac myofibrils. Description: In vitro model of dose-dependent myofibril ATPase modulation (AC1.4, pyruvate kinase/lactate dehydrogenase-coupled ATPase assay at pCa25). The format is biochemical. The following applies: concentration at which ATPase activity was 1.4-fold higher than the bottom of the dose curve, mean of a minimum of two independent tests. Put shortly:
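We measure calcium-buffered ATPase activity of detergent-skinned bovine cardiac myofibrils at pH 6.80 and 22° C with 1 mM ATP, using a PK/LDH-coupled NADH readout at 340 nm. Values come from four-parameter dose-response fits, averaged over at least two independent runs.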

`C[C@@H](NC(=O)[C@H]1CCCN1C(=O)[C@H]1CCCN(S(=O)(=O)N2CC(C#N)C2)C1)c1cccc(C(F)(F)F)c1` [Example 465, 1-(((3S)-1-((3-cyano-1-azetidinyl)sulfonyl)-3-piperidinyl)carbonyl)-N-((1R)-1-(3-(trifluoromethyl)phenyl)ethyl)-D-prolinamide]: the AC1.4 turned out to be 1.9455 µM.

Consider `C[C@@H](NC(=O)[C@H]1CCCN1C(=O)c1cccc(S(=O)(=O)N2CC(C)(O)C2)c1)c1ccc(C(F)(F)F)cc1` [Example 466, 1-(3-((3-hydroxy-3-methyl-1-azetidinyl)sulfonyl)benzoyl)-N-((1R)-1-(4-(trifluoromethyl)phenyl)ethyl)-D-prolinamide], for which the AC1.4 stood at 1.961 µM.

As to `O=C(NCc1ccc(C(F)(F)F)cc1)[C@H]1CCCN1C(=O)[C@H]1CCCN(S(=O)(=O)N2CC(O)(C(F)(F)F)C2)C1` [Example 467, 1-(((3S)-1-((3-hydroxy-3-(trifluoromethyl)-1-azetidinyl)sulfonyl)-3-piperidinyl)carbonyl)-N-(4-(trifluoromethyl)benzyl)-D-prolinamide], the AC1.4 worked out at 1.9675 µM.

With `CC[C@H](NC(=O)[C@H]1CCCN1C(=O)[C@H]1CCCN(S(=O)(=O)N2CC(C#N)C2)C1)c1cc(F)cc(F)c1` [Example 468, 1-(((3S)-1-((3-cyano-1-azetidinyl)sulfonyl)-3-piperidinyl)carbonyl)-N-((1S)-1-(3,5-difluorophenyl)propyl)-D-prolinamide], the AC1.4 was determined as 1.9855 µM.

As to `O=C(NCc1ccc(C(F)(F)F)cc1)[C@H]1CCCN1C(=O)[C@H]1CCCN(S(=O)(=O)N2CC(Nc3ccc(F)cc3)C2)C1` [Example 469, 1-(((3S)-1-((3-((4-fluorophenyl)amino)-1-azetidinyl)sulfonyl)-3-piperidinyl)carbonyl)-N-(4-(trifluoromethyl)benzyl)-D-prolinamide], the AC1.4 is 1.9915 µM.

In turn, `N#CC1CN(S(=O)(=O)N2CC[C@H](C(=O)N3CCC[C@@H]3C(=O)NCc3ccc(C(F)(F)F)cc3F)C2)C1` [Example 470, 1-(((3S)-1-((3-cyano-1-azetidinyl)sulfonyl)-3-pyrrolidinyl)carbonyl)-N-(2-fluoro-4-(trifluoromethyl)benzyl)-D-prolinamide] returned an AC1.4 of 1.9915 µM.

In turn, `O=C(N[C@@H](c1cc(F)c(Cl)cc1F)C1COC1)[C@H]1C[C@H]2C[C@H]2N1C(=O)c1cc(C2CC2)ccn1` [Example 471, (1R,3R,5R)-N-((R)-(4-chloro-2,5-difluorophenyl)(3-oxetanyl)methyl)-2-((4-cyclopropyl-2-pyridinyl)carbonyl)-2-azabicyclo[3.1.0]hexane-3-carboxamide] yielded an AC1.4 of 1.996 µM.

In the case of `Cc1ccc(C(=O)N2[C@@H](C(=O)N[C@@H](c3cc(F)c(Cl)cc3F)C3COC3)C[C@H]3C[C@H]32)cc1S(C)(=O)=O` [Example 472, (1R,3R,5R)-N-((R)-(4-chloro-2,5-difluorophenyl)(3-oxetanyl)methyl)-2-(4-methyl-3-(methylsulfonyl)benzoyl)-2-azabicyclo[3.1.0]hexane-3-carboxamide], the AC1.4 was 1.807 µM.

`O=C1NCCCCC1NS(=O)(=O)N1CCC[C@H](C(=O)N2CCC[C@@H]2C(=O)NCc2ccc(C(F)(F)F)cc2)C1` (stereo partly drawn) [Example 473, (2R)-1-((3S)-1-(N-(2-oxoazepan-3-yl)sulfamoyl)piperidine-3-carbonyl)-N-(4-(trifluoromethyl)benzyl)pyrrolidine-2-carboxamide]: the AC1.4 is 2.035 µM.

In turn, `COC1CCN(S(=O)(=O)c2cccc(C(=O)N3CCC[C@@H]3C(=O)NCc3ccc(C(F)(F)F)cc3)c2)CC1` [Example 474, 1-((3-((4-methoxy-1-piperidinyl)sulfonyl)phenyl)carbonyl)-N-(4-(trifluoromethyl)benzyl)-D-prolinamide] showed an AC1.4 of 2.036 µM.

On to `CS(=O)(=O)c1cccc(C(=O)N2CC3(CCC3)[C@@H]2C(=O)N[C@@H](c2ccc(C(F)(F)F)cc2F)C2CC2)c1` [Example 475, (1R)-N-((R)-cyclopropyl(2-fluoro-4-(trifluoromethyl)phenyl)methyl)-2-(3-(methylsulfonyl)benzoyl)-2-azaspiro[3.3]heptane-1-carboxamide], for which the AC1.4 was determined as 1.866 µM.

The compound `O=C(O[C@@H]1CC(C(=O)N[C@@H](c2cc(F)c(Cl)cc2F)C2COC2)N(C(=O)c2ccnc(C(F)F)c2)C1)c1ccnc(C(F)F)c1` (stereo partly drawn) [Example 476, (3R,5R)-5-(((R)-(4-chloro-2,5-difluorophenyl)(3-oxetanyl)methyl)carbamoyl)-1-((2-(difluoromethyl)-4-pyridinyl)carbonyl)-3-pyrrolidinyl2-(difluoromethyl)-4-pyridinecarboxylate] gave an AC1.4 of 2.071 µM.

On to `O=C(NCc1ccc(C(F)(F)F)cc1)[C@H]1CCCN1C(=O)[C@H]1CCCN(S(=O)(=O)N2CC(c3ccc(F)cc3)C2)C1` [Example 477, 1-(((3S)-1-((3-(4-fluorophenyl)-1-azetidinyl)sulfonyl)-3-piperidinyl)carbonyl)-N-(4-(trifluoromethyl)benzyl)-D-prolinamide], for which the AC1.4 came to 2.0765 µM.

`CN(C)S(=O)(=O)c1cccc(C(=O)N2C[C@H]3C[C@H]3[C@@H]2C(=O)NCc2ccc(C(F)(F)F)cc2)c1` [Example 478, (1R,2R,5S)-3-(3-(dimethylsulfamoyl)benzoyl)-N-(4-(trifluoromethyl)benzyl)-3-azabicyclo[3.1.0]hexane-2-carboxamide] displayed an AC1.4 of 2.082 µM.

`CS(=O)(=O)c1cccc(C(=O)N2CCC[C@@H]2C(=O)N[C@@H](c2ccc(Cl)cc2F)C2CC2)c1` [Example 479, N-((R)-(4-chloro-2-fluorophenyl)(cyclopropyl)methyl)-1-(3-(methylsulfonyl)benzoyl)-D-prolinamide]: the AC1.4 came out at 1.887 µM.

`O=C(N[C@@H](c1ccc(C(F)(F)F)cc1F)C1COC1)[C@H]1C[C@H]2C[C@H]2N1C(=O)c1ccnc(C(F)F)c1` [Example 480, (1R,3R,5R)-2-((2-(difluoromethyl)-4-pyridinyl)carbonyl)-N-((R)-(2-fluoro-4-(trifluoromethyl)phenyl)(3-oxetanyl)methyl)-2-azabicyclo[3.1.0]hexane-3-carboxamide] returned an AC1.4 of 2.1525 µM.

With `CS(=O)(=O)c1cccc(C(=O)N2CCC[C@@H]2C(=O)NC(c2ccc(C(F)(F)F)cc2)C2CNC(=O)C2)c1` (some centres unmarked) [Example 482], the AC1.4 is 1.945 µM.

`O=C(NCc1ccc(C(F)(F)F)cc1)[C@H]1CCCN1C(=O)[C@H]1CCCN(S(=O)(=O)N2CC(C3CCC3)C2)C1` [Example 483, 1-(((3S)-1-((3-cyclobutyl-1-azetidinyl)sulfonyl)-3-piperidinyl)carbonyl)-N-(4-(trifluoromethyl)benzyl)-D-prolinamide] gave an AC1.4 of 2.168 µM.

Take `CS(=O)(=O)c1cccc(C(=O)N2C[C@@H]3C[C@@H]3[C@@H]2C(=O)N[C@@H](c2ccc(C(F)(F)F)cc2F)C2CC2)c1` [Example 484, (1S,2R,5R)-N-((R)-cyclopropyl(2-fluoro-4-(trifluoromethyl)phenyl)methyl)-3-(3-(methylsulfonyl)benzoyl)-3-azabicyclo[3.1.0]hexane-2-carboxamide]: the AC1.4 was 2.014 µM.

In turn, `CS(=O)(=O)c1cccc(C(=O)N2[C@@H](C(=O)N[C@@H](c3ccc(Cl)c(F)c3)C3CC3)C[C@H]3C[C@H]32)c1` [Example 485, (1R,3R,5R)-N-((R)-(4-chloro-3-fluorophenyl)(cyclopropyl)methyl)-2-(3-(methylsulfonyl)benzoyl)-2-azabicyclo[3.1.0]hexane-3-carboxamide] came in with an AC1.4 of 2.0445 µM.

As for `O=C(NCc1ccc(C(F)(F)F)cc1)[C@H]1CCCN1C(=O)c1cccc(S(=O)(=O)N2CCC2)c1` [Example 486, 1-(3-(l-azetidinylsulfonyl)benzoyl)-N-(4-(trifluoromethyl)benzyl)-D-prolinamide], the AC1.4 was found to be 2.202 µM.

The compound `O=C(N[C@@H](c1cc(F)c(Cl)cc1F)C1COC1)[C@H]1C[C@H]2C[C@H]2N1C(=O)c1cc(C(F)(F)F)ncn1` [Example 487, (1R,3R,5R)-N-((R)-(4-chloro-2,5-difluorophenyl)(3-oxetanyl)methyl)-2-((6-(trifluoromethyl)-4-pyrimidinyl)carbonyl)-2-azabicyclo[3.1.0]hexane-3-carboxamide] showed an AC1.4 of 2.218 µM.

`CS(=O)(=O)c1cncc(C(=O)N2C[C@@H](F)C[C@@H]2C(=O)N[C@@H](c2cc(F)c(Cl)cc2F)C2CC2)c1` [Example 488, (4S)-N-((R)-(4-chloro-2,5-difluorophenyl)(cyclopropyl)methyl)-4-fluoro-1-((5-(methylsulfonyl)-3-pyridinyl)carbonyl)-D-prolinamide]: the AC1.4 amounted to 2.1245 µM.

Consider `O=C(NCc1ccc(C(F)(F)F)cc1)[C@H]1CCCN1C(=O)[C@H]1CCCN(S(=O)(=O)N2CC(NC(=O)C(F)(F)F)C2)C1` [Example 489, 1-(((3S)-1-((3-((trifluoroacetyl)amino)-1-azetidinyl)sulfonyl)-3-piperidinyl)carbonyl)-N-(4-(trifluoromethyl)benzyl)-D-prolinamide], for which the AC1.4 was 2.2325 µM.

On to `CS(=O)(=O)c1ccc(C(=O)N2[C@@H](C(=O)N[C@@H](c3ccc(C(F)(F)F)cc3F)C3CC3)C[C@H]3C[C@H]32)cn1` [Example 490, (1R,3R,5R)-N-((R)-cyclopropyl(2-fluoro-4-(trifluoromethyl)phenyl)methyl)-2-((6-(methylsulfonyl)-3-pyridinyl)carbonyl)-2-azabicyclo[3.1.0]hexane-3-carboxamide], for which the AC1.4 turned out to be 2.1625 µM.

Regarding `O=C(N[C@@H](c1ccc(C(F)(F)F)c(F)c1)C1CC1)[C@H]1C[C@H]2C[C@H]2N1C(=O)c1cncc(S(=O)(=O)C2CC2)c1` [Example 491, (1R,3R,5R)-N-((R)-cyclopropyl(3-fluoro-4-(trifluoromethyl)phenyl)methyl)-2-((5-(cyclopropylsulfonyl)-3-pyridinyl)carbonyl)-2-azabicyclo[3.1.0]hexane-3-carboxamide], the AC1.4 is 2.181 µM.
